# Results taken from patent US9765035B2 (priority 2013, dated 2017).
# Where two headings read alike, the source gives them in different places.
# Target: human PRMT6 (Homo sapiens, UniProt Q96LA8)
# Assay: biochemical
# Description: General Materials. S-adenosylmethionine (SAM), S-adenosylhomocysteine (SAH), bicine, Tween20, dimethylsulfoxide (DMSO), bovine skin gelatin (BSG), sodium butyrate and Tris(2-carboxyethyl)phosphine hydrochloride solution (TCEP) were purchased from Sigma-Aldrich at the highest level of purity possible. ^3H-SAM was purchase from American Radiolabeled Chemicals with a specific activity of 80 Ci/mmol. 384-well streptavidin Flashplates were purchased from PerkinElmer.
# Substrates. Peptide representative of human histone H4 residues 36-50 was synthesized with an N-terminal linker-affinity tag motif and a C-terminal amide cap by 21st Century Biochemicals. The peptide was purified by high-performance liquid chromatography (HPLC) to greater than 95% purity and confirmed by liquid chromatography mass spectrometry (LC-MS). The sequence was Biot-Ahx-[…]-amide and contained a monomethylated lysine at position 44 (SEQ ID NO.:5).
# Molecular Biology: Full-length human PRMT6 (NM_018137.2) transcript clone was amplified from an HEK 293 cDNA library, incorporating a flanking 5′ sequence encoding a FLAG tag ([…]) (SEQ ID NO.:6) fused directly to Ser 2 of PRMT6 and a 3′ sequence encoding a hexa His sequence (HHHHHH) (SEQ ID NO.: 17) fused directly to Asp 375. The amplified gene was subcloned into pFastBacMam (Viva Biotech).
# Protein Expression. Recombinant baculovirus were generated according to Bac-to-Bac kit instructions (Life Technologies). […] Infections were carried out at 37° C. for 48 hours, harvested by centrifugation, and stored at −80° C. for purification.
# Protein Purification. […] Column was washed with 20 mM imidazole in the same buffer and Flag-PRMT6-His was eluted with 150 mM imidazole. Pooled fractions were dialysed against buffer Ni-A and further purified by anti-flag M2 affinity chromatography. Flag-PRMT6-His was eluted with 200 ug/ml FLAG peptide in the same buffer. Pooled fractions were dialysed in 20 mM Tris, 150 mM NaCl, 10% glycerol and 5 mM β-mercaptoethanol, pH 7.8. The purity of recovered protein was 95%.
# General Procedure for PRMT6 Enzyme Assays on Peptide Substrates. The assays were all performed in a buffer consisting of 20 mM Bicine (pH=7.6), 1 mM TCEP, 0.005% BSG, and 0.002% Tween 20, prepared on the day of use. Compounds in 100% DMSO (1 ul) were spotted into a polypropylene 384-well V-bottom plates (Greiner) using a Platemate Plus outfitted with a 384-channel head (Thermo Scientific). DMSO (1 ul) was added to Columns 11, 12, 23, 24, rows A-H for the maximum signal control and 1 ul of SAH, a known product and inhibitor of PRMT6, was added to columns 11, 12, 23, 24, rows I-P for the minimum signal control. A cocktail (40 ul) containing the PRMT6 enzyme was added by Multidrop Combi (Thermo-Fisher). The compounds were allowed to incubate with PRMT6 for 30 min at room temperature, then a cocktail (10 ul) containing SAM and peptide was added to initiate the reaction (final volume=51 ul). The final concentrations of the components were as follows: PRMT6 was 1 nM, ^3H-SAM was 200 nM, non-radiolabeled SAM was 250 nM, peptide was 75 nM, SAH in the minimum signal control wells was 1 mM, and the DMSO concentration was 2%. The assays were stopped by the addition of non-radiolabeled SAM (10 ul) to a final concentration of 400 uM, which dilutes the ^3H-SAM to a level where its incorporation into the peptide substrate is no longer detectable. 50 ul of the reaction in the 384-well polypropylene plate was then transferred to a 384-well Flashplate and the biotinylated peptides were allowed to bind to the streptavidin surface for at least 1 hour before being washed once with 0.1% Tween20 in a Biotek EL×405 plate washer. The plates were then read in a PerkinElmer TopCount plate reader to measure the quantity of ^3H-labeled peptide bound to the Flashplate surface, measured as disintegrations per minute (dpm) or alternatively, referred to as counts per minute (cpm). […]
# [1] = biochemical evaluation, peptide substrate, read-out: PRMT6 IC50
# [2] = single experiment or average of multiple experiments, read-out: PRMT6 biochemical evaluation (numerical)
# human PRMT6, sequence (Q96LA8 with tags, fused parts or gaps): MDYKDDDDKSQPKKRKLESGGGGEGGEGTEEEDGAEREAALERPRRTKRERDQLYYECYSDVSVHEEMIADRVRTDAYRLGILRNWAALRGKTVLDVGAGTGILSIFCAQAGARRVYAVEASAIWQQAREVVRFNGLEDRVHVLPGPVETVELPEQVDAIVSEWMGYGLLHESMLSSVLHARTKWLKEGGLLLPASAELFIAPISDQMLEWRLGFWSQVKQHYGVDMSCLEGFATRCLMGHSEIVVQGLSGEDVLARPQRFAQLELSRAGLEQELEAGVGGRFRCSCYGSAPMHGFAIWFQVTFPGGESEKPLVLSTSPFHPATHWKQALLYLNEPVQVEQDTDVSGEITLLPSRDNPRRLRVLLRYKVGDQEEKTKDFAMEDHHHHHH
Structure (SMILES),IC50 [1] [nM],IC50 [2] [nM],IC50 [nM],"IC50 (PRMT6 biochemical evaluation (numerical), single experiment or average of multiple experiments) [nM]"
CNCCN(C)Cc1n[nH]c2ccc(C3=CCCCC3)cc12 [Compound 48],< 100,65.6,,
CNCCN(C)Cc1n[nH]c2ccc(Oc3ccccc3C(F)(F)F)cc12 [Compound 49],3010 to 10000,51.9,,
CNCCN(C)Cc1n[nH]c2ccc(OCC3CCOCC3)cc12 [Compound 50],3010 to 10000,45,,
CNCCN(C)Cc1n[nH]c2ccc(OCC3CCN(C(C)=O)CC3)cc12 [Compound 51],1010 to 3000,> 10000,,
CNCCN(C)Cc1n[nH]c2ccc(OCC3CCCC3)cc12 [Compound 52],1010 to 3000,6020,,
CNCCN(C)Cc1c2cc(OCc3ccc(C#N)cc3)ccc2nn1C1CCOCC1 [Compound 53],1010 to 3000,2550,,
CNCCN(C)Cc1n[nH]c2ccc(OCC3CCCCC3)cc12 [Compound 54],101 to 1000,2330,,
CNCCN(C)Cc1n[nH]c2ccc(Oc3ccc(C)cc3)cc12 [Compound 55],101 to 1000,1020,,
CNCCN(C)Cc1n[nH]c2ccc(Oc3ccccc3OC(C)C)cc12 [Compound 56],101 to 1000,774,,
CNCCN(C)Cc1n[nH]c2ccc(Oc3ccc(Cl)cc3)cc12 [Compound 57],101 to 1000,479,,
"CNCCN(C)Cc1n[nH]c2ccc(OC3CCN(C(C)=O)CC3)cc12 [Compound 58, 1-(4-((3-((methyl(2-(methylamino)ethyl)amino)methyl)-1H-indazol-5-yl)oxy)piperidin-1-yl)ethan-1-one]",101 to 1000,447,,
CNCCN(C)Cc1n[nH]c2ccc(Oc3ccc(OC)cc3)cc12 [Compound 59],,,101 to 1000,306
CNCCN(C)Cc1n[nH]c2ccc(Oc3ccccc3C)cc12 [Compound 60],101 to 1000,243,,
CNCCN(C)Cc1n[nH]c2ccc(Oc3ccc(OC(C)C)cc3)cc12 [Compound 61],101 to 1000,236,,
CNCCN(C)Cc1nn(C(C)C)c2ccc(OCc3ccc(C#N)cc3)cc12 [Compound 62],101 to 1000,191,,
CCOc1ccc2[nH]nc(CN(C)CCNC)c2c1 [Compound 63],101 to 1000,164,,
CNCCN(C)Cc1n[nH]c2ccc(OC(C)C)cc12 [Compound 64],< 100,107,,
CCCOc1ccc2[nH]nc(CN(C)CCNC)c2c1 [Compound 65],< 100,105,,
CNCCN(C)Cc1n[nH]c2ccc(OCc3cccc(C(N)=O)c3)cc12 [Compound 66],< 100,56.4,,
CNCCN(C)Cc1n[nH]c2ccc(Oc3cccc(OC(C)C)c3)cc12 [Compound 67],< 100,56.2,,
CNCCN(C)Cc1n[nH]c2ccc(OCc3ccc(C(F)(F)F)cc3)cc12 [Compound 68],< 100,39.7,,
CNCCN(C)Cc1n[nH]c2ccc(OCc3ccc(C(N)=O)cc3)cc12 [Compound 69],< 100,34.2,,
CNCCN(C)Cc1n[nH]c2ccc(OCc3cccc(NC(C)=O)c3)cc12 [Compound 70],< 100,15.1,,
CNCCN(C)Cc1n[nH]c2ccc(OCc3ccc(C(C)(C)C)cc3)cc12 [Compound 71],< 100,13.1,,
CNCCN(C)Cc1n[nH]c2ccc(OCc3cccc(C(F)(F)F)c3)cc12 [Compound 72],< 100,12.7,,
CNCCN(C)Cc1n[nH]c2ccc(OCc3cccc(C(C)=O)c3)cc12 [Compound 73],< 100,9.49,,
CNCCN(C)Cc1n[nH]c2ccc(OCc3cccc(C(C)(C)C)c3)cc12 [Compound 74],< 100,9.09,,
